Drawing on PubChem BioAssay (NCI), this text covers TGI and GI50 for ten compounds.

Some test systems named below: CCRF-CEM leukemia; HOP-62 NSCLC; K-562 leukemia; NCI-H522 lung; OVCAR-5 ovarian; SF-268 CNS; SF-295 CNS; PC-3 prostate; SR leukemia; T-47D breast.
What all share (experiment): NCI-60 cell line screen, 48 h

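The compound was tested at five concentrations on cells cultured in 96-well plates, with a 48-hour exposure period. GI50 is the concentration that inhibits growth by half. The concentration for full growth arrest is given as TGI.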 A value given as a limit tells only on which side of the number the result lay.

As for `CCOC(=O)/C=C/c1c[nH]c(=O)[nH]c1=O`, the TGI in the assay on CCRF-CEM leukemia, with HOP-62 NSCLC, in the assay with K-562 leukemia, in the assay on NCI-H522 lung, in the assay on OVCAR-5 ovarian and in the assay with SF-268 CNS was greater than 75 µM throughout. The compound further registered a TGI in the assay with SF-295 CNS greater than 75 µM.

`CCCCCCC(=O)c1ccc2ccccc2c1O`: the TGI in the assay on CCRF-CEM leukemia, in the assay with HOP-62 NSCLC, with K-562 leukemia, with PC-3 prostate, with SF-268 CNS and in the assay on SF-295 CNS was greater than 100 µM throughout. For the same compound, the TGI in the assay on SR leukemia and with T-47D breast was greater than 100 µM each time.

Consider `CC(=O)OCc1nnn2c1CCC2`, for which the TGI with CCRF-CEM leukemia, in the assay with HOP-62 NSCLC, with K-562 leukemia, in the assay with NCI-H522 lung, in the assay on OVCAR-5 ovarian and in the assay with SF-295 CNS was greater than 100 µM each time. This compound registered a TGI with SR leukemia greater than 100 µM.

As for `C=CCOC1OC(CS(=O)(=O)O)C(OC(C)=O)C(OC(C)=O)C1OC(C)=O` (configuration not stated), the TGI in the assay with CCRF-CEM leukemia, with HOP-62 NSCLC, in the assay with K-562 leukemia, with OVCAR-5 ovarian, with PC-3 prostate and with SF-295 CNS was greater than 100 µM throughout. The TGI in the assay on SR leukemia and in the assay on T-47D breast was greater than 100 µM each time.

For `CCOC(=O)C1=C(C)N(C2OC(COC(C)=O)C(OC(C)=O)C(OC(C)=O)C2OC(C)=O)C(=O)NC1c1ccccc1` (configuration not stated), the TGI was greater than 100 µM with CCRF-CEM leukemia; greater than 100 µM in the assay with HOP-62 NSCLC; greater than 100 µM in the assay with K-562 leukemia; 63.4 µM in the assay with NCI-H522 lung; greater than 100 µM in the assay with OVCAR-5 ovarian; greater than 100 µM in the assay on SF-268 CNS. Also, the TGI with SF-295 CNS and with SR leukemia was greater than 100 µM in each case.

`COc1ccc(OCC(C)(C)O)cc1`: the TGI in the assay on CCRF-CEM leukemia, in the assay on HOP-62 NSCLC, in the assay on K-562 leukemia, with OVCAR-5 ovarian, in the assay with SF-268 CNS and in the assay on SF-295 CNS was greater than 100 µM each time.

On to `c1ccc(N2N=C3N(c4ccccc4)C2N3c2ccccc2)cc1`, for which the TGI with CCRF-CEM leukemia was 71.8 µM; with HOP-62 NSCLC, greater than 100 µM; in the assay on K-562 leukemia, 59.5 µM; in the assay with NCI-H522 lung, 56.1 µM; in the assay on OVCAR-5 ovarian, greater than 100 µM; with PC-3 prostate, greater than 100 µM. The TGI in the assay with SF-268 CNS, in the assay with SF-295 CNS and with T-47D breast was greater than 100 µM each time.

As to `COc1ccc(-c2c3c(nc4[nH]c(=S)[nH]c(=S)c24)CCCC3)cc1OC`, the TGI was 73.1 µM in the assay on CCRF-CEM leukemia; greater than 100 µM in the assay on HOP-62 NSCLC; greater than 100 µM with K-562 leukemia; greater than 100 µM in the assay on OVCAR-5 ovarian; 79 µM in the assay on PC-3 prostate; greater than 100 µM in the assay with SF-268 CNS. In addition, the values for the TGI in the assay with SF-295 CNS, with SR leukemia and in the assay on T-47D breast were 38.8 µM, greater than 100 µM and greater than 100 µM, respectively.

As for `CCCCn1c(C)c2c(c1C)C(=O)N(CCN1CCN(c3ccccc3Cl)CC1)C2=O`, the TGI in the assay with CCRF-CEM leukemia is 75.7 µM; in the assay with HOP-62 NSCLC, 93.3 µM; with K-562 leukemia it was 92.1 µM; in the assay on NCI-H522 lung it was 78.7 µM; in the assay with OVCAR-5 ovarian, greater than 100 µM; with PC-3 prostate, 79.5 µM. Moreover, the TGI was 32.4 µM with SF-268 CNS, greater than 100 µM in the assay with SF-295 CNS, 58.7 µM in the assay with SR leukemia and 75 µM with T-47D breast.

With `CCCCCCCCCC[N+](C)(C)C`, the GI50 in the assay on CCRF-CEM leukemia is 0.739 µM; with HOP-62 NSCLC it was 1.18 µM; in the assay with K-562 leukemia, 1.82 µM; in the assay with NCI-H522 lung it was 1.7 µM; in the assay with OVCAR-5 ovarian, 1.05 µM; in the assay with PC-3 prostate, 0.978 µM. For the same compound, the GI50 in the assay on SF-268 CNS is 1.98 µM; in the assay with SF-295 CNS, 1.97 µM; in the assay with SR leukemia, 1.12 µM; with T-47D breast, 1.91 µM. The TGI was found to be 2.32 µM in the assay with CCRF-CEM leukemia; 3.07 µM in the assay on HOP-62 NSCLC; 7.82 µM in the assay on K-562 leukemia; 5.11 µM in the assay with NCI-H522 lung; 3.89 µM in the assay with OVCAR-5 ovarian; 5.16 µM in the assay on PC-3 prostate. Further, the TGI came to 5.77 µM in the assay with SF-268 CNS, 5.81 µM in the assay on SF-295 CNS, 3.43 µM with SR leukemia and 8.33 µM in the assay on T-47D breast.
